Reference: patent US20070129357A1, “Novel crystals of fluorobenzamide derivative” (priority 2003, published 2007)
“Also recorded” adds a separate entry of the source.

How the values were obtained:
[1] = system: If current; details: stated as known from WO 00/75133; cited from earlier work
[2] = Hygroscopicity of the crystals (FIG. 5 and FIG. 6); type: physicochemical; details: crystal forms of compound A compared, FIG. 5 (α-type, Example 3) and FIG. 6 (β-type, Example 2); monophosphate

melting point | Compound | inhibitory action for If current [1] | hygroscopicity [2]
 | COc1cc2c(cc1OC)CN(C(=O)[C@@H]1CCCN(CCNC(=O)c3ccc(F)cc3)C1)CC2.O=P(O)(O)O [compound A, (−)-N-{2-[(R)-3-(6,7-dimethoxy-1,2,3,4-tetrahydroisoquinoline-2-carbonyl)piperidino]ethyl}-4-fluorobenzamide monophosphate] | inhibitory action for If current | 
203.8 to 204.7 °C | COc1cc2c(cc1OC)CN(C(=O)[C@@H]1CCCN(CCNC(=O)c3ccc(F)cc3)C1)CC2.O=P(O)(O)O [α-type crystal, (−)-N-{2-[(R)-3-(6,7-dimethoxy-1,2,3,4-tetrahydroisoquinoline-2-carbonyl)piperidino]ethyl}-4-fluorobenzamide monophosphate] |  | particularly good hygroscopicity; also recorded: superior to the β-type crystal in terms of hygroscopicity
195.5 to 196.3 °C | COc1cc2c(cc1OC)CN(C(=O)[C@@H]1CCCN(CCNC(=O)c3ccc(F)cc3)C1)CC2.O=P(O)(O)O [β-type crystal, (−)-N-{2-[(R)-3-(6,7-dimethoxy-1,2,3,4-tetrahydroisoquinoline-2-carbonyl)piperidino]ethyl}-4-fluorobenzamide monophosphate] |  | 
